Assay results published in US20160184274A1, “Methods for inhibiting mesenchymal phenotype after epithelial-to-mesenchymal transition” (Fibrostatin, S.L., priority 2014, published 2016).

Tested on: mesenchymal A549 spheroids
Test: Spheroid viability / cell death by LDH activity in media
Type: cell-based, Human
Details: T12 10 μM for the last 2 days of 4-day EMT induction; FIG. 7B
Procedure: FIG. 7. T12 disrupts collagen IV network and reduces A549 mesenchymal spheroids viability. A549 spheroids were subjected to EMT induction with TGF-β and TNF-α during 4 days, and treated with T12 (10 μM) or maintained untreated (Cont) for the last 2 days. In A, spheroids were analyzed by immunofluorescence confocal microscopy with anti-α1α2 (IV) antibodies (COL4, white) and DAPI to visualize the cell nuclei (grey). In B, the culture media of the spheroids in A were used for assessing cell death by measuring LDH activity. […] Represented are Means (±SEM).
For some purposes, culture media were cleared by centrifugation (500×g, 10 min, room temperature) and LDH activity in supernatants determined with Lactate Dehydrogenase Activity Assay Kit (Sigma-Aldrich).
Three-dimensional spheroid cultures of A549 cells were obtained using a hanging droplet method (Kelm et al., 2003. Biotechnol. Bioeng. 83: 173-180.; Kumar et al., 2013. PLoS One. 8: e68597). Briefly, cells were grown to approximately 80% confluence on adherent tissue-culture flasks. Then cells were trypsinized, dispersed in DMEM/10% FBS, and counted using an automated cell counter (MOXI® Z, Orflo). The cell suspension was diluted to a 10^6 cells/mL-concentration, and 25 μl of the cell suspension were pipetted onto the underside of a sterile 10-cm tissue culture plate lid. Each lid was loaded with approximately 55 droplets. […]

## COc1ccc(-c2ccc(-c3cccc(C)c3)c(C)c2)c(CCC(=O)O)c1 [T12, 3-[4″-methoxy-3,2′-dimethyl-(1,1′;4′,1″)terphenyl-2″-yl] propionic acid]
  cell viability (LDH activity in culture media): reduced cell viability
